{
  "source": "paper PMC4014123",
  "about": "(Acta Crystallographica Section D: Biological Crystallography, 2014)",
  "origin": "cited, not measured here",
  "tested_on": "I223R/H275Y dual mutation of neuraminidase from influenza A H1N1",
  "conditions": "I223R/H275Y dual mutant vs wild type; ref van der Vries et al., 2012; cited from earlier work",
  "data": [
    {"smiles": "CCOC(=O)C1=C[C@@H](OC(CC)CC)[C@H](NC(C)=O)[C@@H](N)C1", "note": "[oseltamivir]", "values": [
      {"measurement": "resistance towards oseltamivir relative to wild type", "value": "approximately 7500 times"}
    ]}
  ]
}
